Consider 45 compounds from ChEMBL document CHEMBL4651402, “Screening of ~5500 FDA-approved drugs and clinical candidates for anti-SARS-CoV-2 activity” (2021).

The first assay deals with SARS-CoV-2. The assay is described as follows: microbe, parasite or virus in culture. To be noted: Severe acute respiratory syndrome coronavirus 2, Vero C1008, 48 h.
Consider `O=C(Nc1cccc(C2=NCCN2)c1)Nc1cccc(C2=NCCN2)c1` [IMIDOCARB], for which the IC50 is more than 20 µM.
The same measure, in the same setting: the same measure for `COc1cc2c(cc1O)CCNC2C` (stereo not given) [SALSOLINE]: more than 20 µM; for `CC#CC(=O)N[C@H]1CCCN(c2c(F)cc(C(N)=O)c3[nH]c(C)c(C)c23)C1` [BRANEBRUTINIB]: more than 20 µM.
Take `CN1CCN(C(c2ccccc2)c2ccccc2)CC1` [CYCLIZINE]: the IC50 is more than 20 µM.
`Cn1cc(C(=O)[C@@H]2CCc3[nH]cnc3C2)c2ccccc21` [RAMOSETRON] gave an IC50 of more than 20 µM.
Same read-out and setting: the same measure for `CO/N=C(\C(=O)N[C@@H]1C(=O)N2C(C(=O)O)=C(COC(N)=O)CS[C@H]12)c1ccco1` [CEFUROXIME]: more than 20 µM.
Compound `N#CN=C(NCCCCCCOc1ccc(Cl)cc1)Nc1ccncc1` [CHS-828] registered an IC50 of more than 20 µM.
With `CNc1ncnc2c1ncn2[C@@H]1O[C@H](CO)[C@@H](O)[C@H]1O`, the IC50 was more than 20 µM.
The compound `CCCN(CCC)C(=O)C1=Cc2ccc(-c3ccc(C(=O)N4CCCC4)cc3)cc2N=C(N)C1` [MOTOLIMOD] yielded an IC50 of more than 20 µM.
Compound `O=C(O)[C@]1(O)C[C@H](O)[C@@H](O)[C@@H](O)C1` came in with an IC50 of more than 20 µM.
Same read-out and setting: the same measure for `Nc1c(O)cccc1C(=O)CC(N)C(=O)O` (stereo not given): more than 20 µM; for `COc1cccc2c1C(=O)c1c(O)c3c(c(O)c1C2=O)CC(O)(/C(C)=N/NC(=O)c1ccccc1)CC3OC1CC(N)C(O)C(C)O1` (stereo not given): more than 20 µM; for `C[C@@H](NCCCc1cccc(C(F)(F)F)c1)c1cccc2ccccc12`: more than 20 µM.
For `CC1(C)CCC(C)(C)c2cc(NC(=O)c3ccc(C(=O)O)cc3)ccc21` [TAMIBAROTENE], the IC50 was more than 20 µM.
`Cc1cn([C@H]2C[C@H](O)[C@@H](CO)O2)c(=O)[nH]c1=O` [DOXRIBTIMINE]: the IC50 is more than 20 µM.
In turn, `CC[N@@+]1(C)[C@@H]2CC[C@H]1C[C@@H](OC(=O)[C@]1(c3ccccc3)CC[C@H](C(=O)O[C@H]3C[C@H]4CC[C@@H](C3)[N@+]4(C)CC)c3ccccc31)C2` returned an IC50 of more than 20 µM.
Still for that read-out and setting: for `COc1ccc(C(=O)/C=C/c2ccccc2)cc1` [4'-METHOXYCHALCONE] the value was more than 20 µM; for `CCc1occc(=O)c1O` [E637], more than 20 µM.
Consider `COC(=O)Nc1nc2cc(SC(C)C)ccc2[nH]1`, for which the IC50 was more than 20 µM.
For `CN1C(=O)CC(C)(c2ccccc2)C1=O` (stereo not given) [METHSUXIMIDE], the IC50 is more than 20 µM.
Same read-out and setting: the same measure for `CN1CC(O)C2=CC(=NNC(N)=O)C(=O)C=C21` (stereo not given): more than 20 µM; for `CC(=O)N(CC(O)CO)c1c(I)c(C(=O)NCC(O)CO)c(I)c(C(=O)NCC(O)CO)c1I` (stereo not given) [IOHEXOL]: more than 20 µM.
The same measure, in the same setting: for `CN1CCC2=C(C1)C(c1ccccc1)c1ccccc12` (stereo not given) [PHENINDAMINE] the value was more than 20 µM; for `COc1ccc2oc3ccccc3c(=O)c2c1`, more than 20 µM; for `COC(=O)C(N)CCCNC(=N)N[N+](=O)[O-]` (stereo not given), more than 20 µM.
Regarding `CC[C@H](CC[C@@H](C)[C@H]1CC[C@H]2[C@@H]3CC=C4C[C@@H](O)CC[C@]4(C)[C@H]3CC[C@]12C)C(C)C` [BETA-SITOSTEROL], the IC50 was more than 20 µM.
The same measure, in the same setting: for `C[N+]1(C)[C@@H]2C[C@@H](OC(=O)[C@H](CO)c3ccccc3)C[C@H]1[C@@H]1O[C@@H]12` [METHSCOPOLAMINE] the value was more than 20 µM; for `[O-][n+]1cccc(C(Cl)=NOC[C@H](O)CN2CCCCC2)c1`, more than 20 µM; for `CNCCCN1c2ccccc2CCc2ccccc21` [DESIPRAMINE], more than 20 µM.
Turning to `Cc1nc(N)nc(N)c1-c1ccc(Cl)c(Cl)c1` [METOPRINE], the IC50 was more than 20 µM.
Regarding `CCCN(CCC)CCc1cccc2c1CC(=O)N2` [ROPINIROLE], the IC50 is more than 20 µM.
Still for that read-out and setting: for `COc1ccc2c(c1OC)C(=O)O[C@H]2[C@@H]1c2c(cc3c(c2OC)OCO3)CCN1C` the value was more than 20 µM; for `O=C(O)CCCCCc1cccc2cncn12`, more than 20 µM.
Same read-out and setting: for `C[C@]12CC[C@H](O)C[C@H]1CC[C@@H]1[C@@H]2CC[C@]2(C)[C@@](O)(c3ccoc3)CC[C@]12O` [ROSTAFUROXIN] the value was more than 20 µM; for `O=C1c2cc(Cl)ccc2OC2CCON12` (stereo not given) [SECLAZONE], more than 20 µM.
The same measure, in the same setting: for `COc1ccc(C(=O)OC2CCC3(C)C4CCC5[C@]6(O)[C@@H](O)C(O)[C@H]7C(CN8CC(C)CC[C@H]8[C@@]7(C)O)[C@@H]6C[C@@]53O[C@]24O)cc1OC` (stereo not given in full) the value was more than 20 µM; for `[2H]C([2H])([2H])O[C@@H]1CN(CCCOc2ccc(F)cc2)CC[C@@H]1NC(=O)c1cc(Cl)c(N)cc1OC`, more than 20 µM.
Compound `O=C(O)/C=C/c1ccc(Cn2ccnc2)cc1` [OZAGREL] yielded an IC50 of more than 20 µM.
`O=c1[nH]c2ccccc2n1C1CCN(CCOc2ccccc2)CC1` [OXIPEROMIDE] returned an IC50 of more than 20 µM.
For `Cc1c(C(=O)NN2CCCCC2)nn(-c2ccc(Cl)cc2Cl)c1-c1ccc(Cl)cc1` [RIMONABANT], the IC50 was more than 20 µM.
Same read-out and setting: the same measure for `C[C@]1(O)CC[C@H]2[C@@H]3CC[C@@]45O[C@]4(C)C(O)=C(C#N)C[C@]5(C)[C@H]3CC[C@@]21C` [EPOSTANE]: more than 20 µM; for `C[C@H](O)[C@H](O)[C@H]1CNc2nc(N)[nH]c(=O)c2N1` [SAPROPTERIN]: more than 20 µM; for `CC(=O)c1ccc(C)cc1N[C@H](C(N)=O)c1c(Cl)cccc1Cl`: more than 20 µM.
The compound `O=c1c(-c2ccc(O)cc2)coc2c(C3O[C@H](CO)[C@@H](O)[C@H](O)[C@H]3O)c(O)ccc12` (stereo not given in full) gave an IC50 of more than 20 µM.
On the same count and under the same terms, the same measure for `CNC(=O)N1CC(Oc2cccc(C(F)(F)F)c2)C1` [FLUZINAMIDE]: more than 20 µM.

The assay is the same for the next values; noted with them: Severe acute respiratory syndrome coronavirus 2, Vero C1008, 48 h, read-out: pIC50 (converted).
Consider `O=C(Nc1cccc(C2=NCCN2)c1)Nc1cccc(C2=NCCN2)c1` [IMIDOCARB], for which the IC50 was more than 20 µM.
In the case of `COc1cc2c(cc1O)CCNC2C` (stereo not given) [SALSOLINE], the IC50 was more than 20 µM.
On to `CC#CC(=O)N[C@H]1CCCN(c2c(F)cc(C(N)=O)c3[nH]c(C)c(C)c23)C1` [BRANEBRUTINIB], for which the IC50 is more than 20 µM.
Still for that read-out and setting: the same measure for `CN1CCN(C(c2ccccc2)c2ccccc2)CC1` [CYCLIZINE]: more than 20 µM; for `Cn1cc(C(=O)[C@@H]2CCc3[nH]cnc3C2)c2ccccc21` [RAMOSETRON]: more than 20 µM.
Still for that read-out and setting: the same measure for `CO/N=C(\C(=O)N[C@@H]1C(=O)N2C(C(=O)O)=C(COC(N)=O)CS[C@H]12)c1ccco1` [CEFUROXIME]: more than 20 µM.
Still for that read-out and setting: the same measure for `N#CN=C(NCCCCCCOc1ccc(Cl)cc1)Nc1ccncc1` [CHS-828]: more than 20 µM; for `CNc1ncnc2c1ncn2[C@@H]1O[C@H](CO)[C@@H](O)[C@H]1O`: more than 20 µM.
For the compound `CCCN(CCC)C(=O)C1=Cc2ccc(-c3ccc(C(=O)N4CCCC4)cc3)cc2N=C(N)C1` [MOTOLIMOD], the IC50 is more than 20 µM.
The same measure, in the same setting: the same measure for `O=C(O)[C@]1(O)C[C@H](O)[C@@H](O)[C@@H](O)C1`: more than 20 µM; for `Nc1c(O)cccc1C(=O)CC(N)C(=O)O` (stereo not given): more than 20 µM; for `COc1cccc2c1C(=O)c1c(O)c3c(c(O)c1C2=O)CC(O)(/C(C)=N/NC(=O)c1ccccc1)CC3OC1CC(N)C(O)C(C)O1` (stereo not given): more than 20 µM.
On the same count and under the same terms, for `C[C@@H](NCCCc1cccc(C(F)(F)F)c1)c1cccc2ccccc12` the value was more than 20 µM.
The same measure, in the same setting: for `CC1(C)CCC(C)(C)c2cc(NC(=O)c3ccc(C(=O)O)cc3)ccc21` [TAMIBAROTENE] the value was more than 20 µM; for `Cc1cn([C@H]2C[C@H](O)[C@@H](CO)O2)c(=O)[nH]c1=O` [DOXRIBTIMINE], more than 20 µM; for `CC[N@@+]1(C)[C@@H]2CC[C@H]1C[C@@H](OC(=O)[C@]1(c3ccccc3)CC[C@H](C(=O)O[C@H]3C[C@H]4CC[C@@H](C3)[N@+]4(C)CC)c3ccccc31)C2`, more than 20 µM.
In the case of `COc1ccc(C(=O)/C=C/c2ccccc2)cc1` [4'-METHOXYCHALCONE], the IC50 was more than 20 µM.
For the compound `CCc1occc(=O)c1O` [E637], the IC50 is more than 20 µM.
Take `COC(=O)Nc1nc2cc(SC(C)C)ccc2[nH]1`: the IC50 was more than 20 µM.
Same read-out and setting: the same measure for `CN1C(=O)CC(C)(c2ccccc2)C1=O` (stereo not given) [METHSUXIMIDE]: more than 20 µM; for `CN1CC(O)C2=CC(=NNC(N)=O)C(=O)C=C21` (stereo not given): more than 20 µM.
The same measure, in the same setting: for `CC(=O)N(CC(O)CO)c1c(I)c(C(=O)NCC(O)CO)c(I)c(C(=O)NCC(O)CO)c1I` (stereo not given) [IOHEXOL] the value was more than 20 µM; for `CN1CCC2=C(C1)C(c1ccccc1)c1ccccc12` (stereo not given) [PHENINDAMINE], more than 20 µM.
Still for that read-out and setting: for `COc1ccc2oc3ccccc3c(=O)c2c1` the value was more than 20 µM; for `COC(=O)C(N)CCCNC(=N)N[N+](=O)[O-]` (stereo not given), more than 20 µM; for `CC[C@H](CC[C@@H](C)[C@H]1CC[C@H]2[C@@H]3CC=C4C[C@@H](O)CC[C@]4(C)[C@H]3CC[C@]12C)C(C)C` [BETA-SITOSTEROL], more than 20 µM.
Take `C[N+]1(C)[C@@H]2C[C@@H](OC(=O)[C@H](CO)c3ccccc3)C[C@H]1[C@@H]1O[C@@H]12` [METHSCOPOLAMINE]: the IC50 was more than 20 µM.
Consider `[O-][n+]1cccc(C(Cl)=NOC[C@H](O)CN2CCCCC2)c1`, for which the IC50 is more than 20 µM.
Regarding `CNCCCN1c2ccccc2CCc2ccccc21` [DESIPRAMINE], the IC50 is more than 20 µM.
Same read-out and setting: the same measure for `Cc1nc(N)nc(N)c1-c1ccc(Cl)c(Cl)c1` [METOPRINE]: more than 20 µM.
On the same count and under the same terms, the same measure for `CCCN(CCC)CCc1cccc2c1CC(=O)N2` [ROPINIROLE]: more than 20 µM; for `COc1ccc2c(c1OC)C(=O)O[C@H]2[C@@H]1c2c(cc3c(c2OC)OCO3)CCN1C`: more than 20 µM; for `O=C(O)CCCCCc1cccc2cncn12`: more than 20 µM.
Same read-out and setting: for `C[C@]12CC[C@H](O)C[C@H]1CC[C@@H]1[C@@H]2CC[C@]2(C)[C@@](O)(c3ccoc3)CC[C@]12O` [ROSTAFUROXIN] the value was more than 20 µM.
As for `O=C1c2cc(Cl)ccc2OC2CCON12` (stereo not given) [SECLAZONE], the IC50 is more than 20 µM.
Still for that read-out and setting: the same measure for `COc1ccc(C(=O)OC2CCC3(C)C4CCC5[C@]6(O)[C@@H](O)C(O)[C@H]7C(CN8CC(C)CC[C@H]8[C@@]7(C)O)[C@@H]6C[C@@]53O[C@]24O)cc1OC` (stereo not given in full): more than 20 µM; for `[2H]C([2H])([2H])O[C@@H]1CN(CCCOc2ccc(F)cc2)CC[C@@H]1NC(=O)c1cc(Cl)c(N)cc1OC`: more than 20 µM; for `O=C(O)/C=C/c1ccc(Cn2ccnc2)cc1` [OZAGREL]: more than 20 µM.
In the case of `O=c1[nH]c2ccccc2n1C1CCN(CCOc2ccccc2)CC1` [OXIPEROMIDE], the IC50 is more than 20 µM.
Same read-out and setting: the same measure for `Cc1c(C(=O)NN2CCCCC2)nn(-c2ccc(Cl)cc2Cl)c1-c1ccc(Cl)cc1` [RIMONABANT]: more than 20 µM.
The same measure, in the same setting: for `C[C@]1(O)CC[C@H]2[C@@H]3CC[C@@]45O[C@]4(C)C(O)=C(C#N)C[C@]5(C)[C@H]3CC[C@@]21C` [EPOSTANE] the value was more than 20 µM; for `C[C@H](O)[C@H](O)[C@H]1CNc2nc(N)[nH]c(=O)c2N1` [SAPROPTERIN], more than 20 µM; for `CC(=O)c1ccc(C)cc1N[C@H](C(N)=O)c1c(Cl)cccc1Cl`, more than 20 µM.
`O=c1c(-c2ccc(O)cc2)coc2c(C3O[C@H](CO)[C@@H](O)[C@H](O)[C@H]3O)c(O)ccc12` (stereo not given in full): the IC50 is more than 20 µM.
On to `CNC(=O)N1CC(Oc2cccc(C(F)(F)F)c2)C1` [FLUZINAMIDE], for which the IC50 is more than 20 µM.
